# Where a name gives a salt, the structure may show the parent alone. Read-outs that look alike come from different tables or passages of the source.
# How the values were obtained:
# Neuroblastoma N2a = assay: Neuroblastoma cell killing; assay type: cell-based
# Protocol: (§1) Neuroblastoma N2a and SKNSH cells were treated with triptolide, resulting in dose- and time-dependent cell killing in N2a, with more than 50% of cells killed with 62.5 nM triptolide at 24 hours and nearly 85% of cells killed with 250 nM triptolide at 48 hours (FIG. 19). To confirm the hypothesis that triptolide results in neuroblastoma cell death via an apoptotic pathway, caspase-3 activity was measured as a marker of apoptosis. In both cell lines, increases in caspase activity with higher doses of triptolide and longer duration of therapy.
# [1] = system: Pancreatic cancer cells (MiaPaca-2, Panc-1, S2VP10); assay: Comparative in vitro cell viability (Dojindo Cell Counting Kit-8); settings: 50 to 200 nmol/L, 24 and 48 hours; prodrug with alkaline phosphatase; FIG. 4-6
# Neuroblastoma N2 cells = assay: Orthotopic mouse model of neuroblastoma; assay type: in vivo; settings: 0.4 mg/kg i.p. for 21 days, A/J immunocompetent mice; FIG. 18
# Protocol: Neuroblastoma N2 cells (1×10^6) were suspended in matrigel and injected into the left retroperitoneal space of 4-6 week old A/J immunocompetent mice. Three days post-cell implantation, mice were injected with 0.4 mg/kg of triptolide intraperitoneally for 21 days. Treatment was stopped at this point, and mice sacrificed. Tumor samples, if any, were harvested from these mice, and tumor weight and volume measured. If tumor burden exceeded University of Minnesota animal care guidelines, mice were sacrificed and their tumors harvested at an earlier time point. Control mice were injected with DMSO for 21 days.
# caspase-3 = assay: Caspase-3 activity in neuroblastoma cells; assay type: cell-based; settings: N2a and SKNSH cells; FIG. 20
# Protocol: as §1
# MIA PaCa-2 cells = assay: Orthotopic mouse model of pancreatic cancer (60 day dosing study); assay type: in vivo, mice; settings: i.p. 60 d, compound 1 0.1-0.9 mg/kg; for survival versus vehicle: triptolide 0.2 mg/kg QD, observed another 28 d, FIG. 13, 14
# Protocol: MIA PaCa-2 cells (1×10^6) were suspended in matrigel and injected into the tail of the pancreas of 4-6 week old female nude mice. Ten days post-cell implantation, mice were injected intraperitoneally with indicated concentrations of compound 1 (0.1, 0.15, 0.3, 0.6 or 0.9 mg/kg) or 0.2 mg/kg Triptolide QD for 60 d. Control mice were injected with saline BID. […] Tumor samples, if any, were harvested from these mice, and tumor weight and volume measured. If tumor burden exceeded University of Minnesota animal care guidelines, mice were sacrificed at earlier time points and their tumors harvested.
# MiaPaca-2 cells = assay: Comparative in vivo study, orthotopic MiaPaca-2 pancreatic tumor in nude mice; settings: i.p. daily 60 days
# Protocol: Thirty nude mice of the strain athymic nu/nu were obtained from National Cancer Institute (NCI) (Rockville, Md.) and kept in a RAR facility. The mice were anaesthetized in accordance with the recommendations of the RAR facility using ketamine 75-200 mg/kg and xylazine 4-8 mg/kg. A small incision 3 mm was made on the left side of the abdominal wall and the spleen was pulled out with forceps far enough to expose and access the pancreas. MiaPaca-2 cell medium was prepared and kept on ice until delivery into the mice. Into each of the mice, 1 million MiaPaca-2 cells suspended in MATRIGEL™ (available from Becton-Dickinson Corporation, Franklin Lakes, N.J.) was injected into the tail of the pancreas (identified by its anatomical attachment with the spleen) using a Hamilton syringe. Following delivery of the cells, the syringe was held steady for an additional 5-10 seconds to permit the MATRIGEL™ to set. The spleen was replaced back into the abdominal cavity, and the abdominal wall was closed by vicryl suture in a continuous manner. The skin was apposed and closed using wound clips. The mice were then transferred to a heating pad until fully recovered before being returned to the cage. Post-operative pain medication (buprenonorphine 0.1 mg/kg) was administered intraperitoneally immediately after full recovery from anaesthesia to prevent respiratory depression and then administered every 12 hours for 2 days. The wound clips were removed from the mice after 7 days of surgery.
# The mice were then randomized into 3 groups, each group having 10 mice. The groups were as follows: control group, triptolide group and the triptolide prodrug (compound 1) group. The control group consisted of mice that were injected intraperitoneally with vehicle DMSO.
# The triptolide group subjects were injected with 0.2 mg/kg of triptolide dissolved in DMSO and diluted with phosphate buffered saline to a volume of 100 the intraperitoneal injections being daily over a period of 60 days. The compound 1 subjects were intraperitoneally injected daily for 60 days with 0.28 mg/kg of the compound dissolved in phosphate buffered saline diluted to a volume of 100 μl.
# The mice were euthanized under anaesthesia at the conclusion of the 60 day treatments. Samples were collected (blood, lung, spleen, liver, kidneys and tumor tissue), and tumor volume and weight were measured and compared among the different groups. Observations were made on the loco-regional growth and cancer growth.
# alkaline phosphatase = assay: In vitro enzymatic conversion (hydrolysis) by alkaline phosphatase; assay type: in vitro ADME, bovine; settings: bovine
# Protocol: (§2) Compound 1 is converted into the active triptolide form by action of the enzyme alkaline phosphatase. An in vitro experiment to study the bioconversion of the triptolide prodrug compound of the invention was performed. In vitro bioconversion was simulated using alkaline phosphatase (from bovine intestinal mucosa, Type VII-S available from Sigma-Aldrich (St. Louis, Mo.) in glycine buffer (pH 9.8).
# (§3) The first order degradation constant was calculated by fitting the remaining concentration versus the incubation time. The degradation half-life (t½) of compound 1 was determined to be 2 minutes.
# [2] = system: S2013, a highly metastatic pancreatic cancer cell line; assay: Orthotopic mouse model of pancreatic cancer (21 day dosing study); assay type: in vivo, mice; settings: 0.42 mg/kg i.p. for 21 d; FIG. 16
# Protocol: 1×10^6 Cells of S2013, a highly metastatic pancreatic cancer cell line, were suspended in matrigel and injected into the tail of the pancreas of 4-6 week old female nude mice. Seven days post-cell implantation, mice were injected intraperitoneally with 0.42 mg/kg of compound 1 for 21 d. Treatment was stopped after 21 d, and mice sacrificed. Tumor samples, if any, were harvested from these mice, and tumor weight and volume measured. If tumor burden exceeded University of Minnesota animal care guidelines, mice were sacrificed and their tumors harvested at an earlier time point. Control mice were injected with saline QD.
# [3] = system: alkaline phosphatase (from bovine intestinal mucosa, Type VII-S); assay: In vitro enzymatic conversion (hydrolysis) by alkaline phosphatase; assay type: in vitro ADME; settings: alkaline phosphatase in glycine buffer (pH 9.8), FIG. 3
# Protocol: as §2, §3
# SkChA-1 cells = assay: Subcutaneous mouse model of cholangiocarcinoma; assay type: in vivo, mice; settings: 0.3 mg/kg i.p. BID for 25 days; FIG. 17
# Protocol: SkChA-1 cells (5×10^5) were suspended in matrigel and injected subcutaneously into the left flank of 4-6 week old female nude mice. Seven days post-cell implantation, mice were injected intraperitoneally with 0.3 mg/kg of compound 1 BID for 25 days. Treatment was stopped at this point, and mice sacrificed. Tumor samples, if any, were harvested from these mice, and tumor weight and volume measured. If tumor burden exceeded University of Minnesota animal care guidelines, mice were sacrificed and their tumors harvested at an earlier time point. Control mice were injected with saline BID.
# [4] = Tris buffer (pH 7.4) and Borate buffer (pH 7.4), room temperature
# [5] = triptolide 0.2 mg/kg, compound 1 0.28 mg/kg
# [6] = pH 9.8, Alkaline Phosphatase, 37° C., read-out: Enzymatic Hydrolysis (t½), Alkaline Phosphatase, 37° C.
smiles,measurement,setting,value
CC(C)[C@]12O[C@H]1[C@@H]1O[C@]13[C@]1(O[C@H]1C[C@H]1C4=C(CC[C@@]13C)C(=O)OC4)[C@@H]2O [triptolide],cells killed,"Neuroblastoma N2a; 62.5 nM, 24 hours",more than 50%
same,cells killed,"Neuroblastoma N2a; 250 nM, 48 hours",~85%
same,pancreatic cell viability,[1],significantly reduced
same,tumor burden (tumor volume and tumor mass) versus control,Neuroblastoma N2 cells,decreased tumor burden
same,caspase-3 activity levels,caspase-3,dose- and time-dependent increases
same,survival versus vehicle,MIA PaCa-2 cells,enhanced survival
same,tumor volume vs untreated control,MiaPaca-2 cells; [5],significantly reduced
"CC(O[C@@H]1[C@@]2(C(C)C)O[C@H]2[C@@H]2O[C@]23[C@]12O[C@H]2C[C@H]1C2=C(CC[C@@]13C)C(=O)OC2)OP(=O)(O)O (stereo partly drawn) [Example 3, 14-O-Phosphonooxyethyltriptolide Disodium Salt]",half-life,alkaline phosphatase; [6],9 min
"CC(C)[C@]12O[C@H]1[C@@H]1O[C@]13[C@]1(O[C@H]1C[C@H]1C4=C(CC[C@@]13C)C(=O)OC4)[C@@H]2OCOP(=O)(O)O [Compound 1, 14-O-Phosphonooxymethyltriptolide Disodium Salt]",tumor burden (tumor volume or tumor weight) versus control,[2],decreased tumor burden
same,pancreatic cell viability,[1],significantly reduced
same,time period in which the majority of conversion to triptolide took place,[3],≤ 10 min
same,half-life,"alkaline phosphatase; alkaline phosphatase in glycine buffer (pH 9.8), first order fit, read-out: degradation half-life (t½)",2 min
same,tumor burden (tumor volume or tumor weight) versus control,SkChA-1 cells,decreased tumor burden
same,degradation after 1 month,[4],no degradation
same,tumor burden (tumor volume or tumor weight) versus control,MIA PaCa-2 cells; FIG. 15,decreased tumor burden
same,survival versus vehicle,MIA PaCa-2 cells,enhanced survival
same,pancreatic tumor growth inhibition vs untreated control,MiaPaca-2 cells; 0.28 mg/kg compound 1,considerable pancreatic tumor growth inhibition
same,impact on body weight,MiaPaca-2 cells; [5],no apparent significant impact
same,signs of toxicity,MiaPaca-2 cells; [5],no apparent signs of toxicity
same,tumor volume vs untreated control,MiaPaca-2 cells; [5],significantly reduced
"CCC(O[C@@H]1[C@@]2(C(C)C)O[C@H]2[C@@H]2O[C@]23[C@]12O[C@H]2C[C@H]1C2=C(CC[C@@]13C)C(=O)OC2)OP(=O)(O)O (stereo partly drawn) [Example 4, 14-O-Phosphonooxypropyltriptolide Disodium Salt]",half-life,alkaline phosphatase; [6],17 min

# From US10183033B2, “Triptolide prodrugs” (priority 2009, dated 2019)
